In patent US7932246B2, “Histone deacetylase inhibitors” (Chroma Therapeutics Ltd., priority 2005, dated 2011):

Columns and labels:
[1] = tested on: HeLa cells; assay: HeLa cell inhibition assay (SRB cell viability); type: cell-based; conditions: Homo sapiens, HeLa, 72 h, IC50 range
Method: HeLa cells growing in log phase were harvested and seeded at 1000 cells/well (200 μl final volume) into 96-well tissue culture plates. Following 24 h of cell growth cells were treated with compounds (final concentration of 20 μM). Plates were then re-incubated for a further 72 h before a sulphorhodamine B (SRB) cell viability assay was conducted according to Skehan 1990 J Natl Canc Inst 82, 1107-1112.
(§1) Data were expressed as a percentage inhibition of the control, measured in the absence of inhibitor, as follows:— % inhibition=100−[(S^i/S^o)×100] where S^i is the signal in the presence of inhibitor and S^o is the signal in the presence of DMSO.
IC50 values were determined by non-linear regression analysis, after fitting the results of eight data points to the equation for sigmoidal dose response with variable slope (% activity against log concentration of compound), using Graphpad Prism software.
(§2) IC50 results were allocated to one of 3 ranges as follows: […]

[2] = target: histone deacetylase activity (HeLa nuclear extract); assay: HDAC fluorescent activity assay (Biomol, Fluor de Lys substrate); type: biochemical; conditions: IC50 range
Method: The ability of compounds to inhibit histone deacetylase activities was measured using the commercially available HDAC fluorescent activity assay from Biomol. In brief, the Fluor de Lys™ substrate, a lysine with an epsilon-amino acetylation, is incubated with the source of histone deacetylase activity (HeLa nuclear extract) in the presence or absence of inhibitor. Deacetylation of the substrate sensitises the substrate to Fluor de Lys™ developer, which generates a fluorophore.
Data are expressed as a percentage of the control, measured in the absence of inhibitor, with background signal being subtracted from all samples, as follows:— % activity=[(S^i−B)/(S^o−B)]×100 where S^i is the signal in the presence of substrate, enzyme and inhibitor, S^o is the signal in the presence of substrate, enzyme and the vehicle in which the inhibitor is dissolved, and B is the background signal measured in the absence of enzyme.
Histone deacetylase activity from crude nuclear extract derived from HeLa cells was used for screening. The preparation, purchased from 4C (Seneffe, Belgium), was prepared from HeLa cells harvested whilst in exponential growth phase. The nuclear extract is prepared according to Dignam JD1983 Nucl. Acid. […] The final buffer composition was 20 mM Hepes, 100 mM KCl, 0.2 mM EDTA, 0.5 mM DTT, 0.2 mM PMSF and 20% (v/v) glycerol.

[3] = tested on: HUT; assay: HUT cell inhibition assay (WST-1 cell viability); type: cell-based; conditions: HUT cells, 72-96 h, WST-1 assay, IC50 range
Method: (§3) Cancer cell lines (U937 and HUT) growing in log phase were harvested and seeded at 1000-2000 cells/well (100 μl final volume) into 96-well tissue culture plates. Following 24 h of growth cells were treated with compound. Plates were then re-incubated for a further 72-96 h before a WST-1 cell viability assay was conducted according to the suppliers (Roche Applied Science) instructions.
as §1
(§4) Dose response curves were generated from 8 concentrations (top final concentration 10 μM, with 3-fold dilutions), using 6 replicates.
(§5) IC50 values were determined by non-linear regression analysis, after fitting the results to the equation for sigmoidal dose response with variable slope (% activity against log concentration of compound), using Graphpad Prism software.
as §2

[4] = tested on: U937; assay: U937 cell inhibition assay (WST-1 cell viability); type: cell-based; conditions: Homo sapiens, U-937; U937 cells, 72-96 h, WST-1 assay, IC50 range
Method: as §3, §1, §4, §5, §2

Row | Compound | IC50 [1] | IC50 [2] | IC50 [3] | IC50 [4]
1 | O=C(NO)c1cnc(N2CC3C(C2)C3NCc2ccc3cc(F)ccc3n2)nc1 (centres unmarked) [Example 44, N-Hydroxy 2-(6-{[(6-fluoroquinolin-2-yl)methyl]amino}-3-azabicyclo[3.1.0]hex-3-yl)pyrimidine-5-carboxamide] | < 330 nM | < 100 nM | < 330 nM | < 330 nM
2 | CN(C1C2CN(c3ncc(C(=O)NO)cn3)CC21)S(=O)(=O)c1ccc2ccccc2c1 (centres unmarked) [Example 45, N-Hydroxy 2-{6-[methyl(naphthalene-2-sulfonyl)-amino]-3-aza-bicyclo[3.1.0]hex-3-yl}pyrimidine-5-carboxamide] | 331 to 3300 nM | < 100 nM | < 330 nM | 331 to 3300 nM
3 | O=C(NO)c1cnc(N2CC3C(C2)C3N(CCN2CCCC2)S(=O)(=O)c2ccc3ccccc3c2)nc1 (centres unmarked) [Example 46, N-Hydroxy 2-{6-[(naphthalene-2-sulfonyl)-(2-pyrrolidin-1-yl-ethyl)amino]-3-azabicyclo[3.1.0]hex-3-yl}pyrimidine-5-carboxamide] | < 330 nM | < 100 nM | < 330 nM | < 330 nM
4 | Cc1nccn1CCN(C1C2CN(c3ncc(C(=O)NO)cn3)CC21)S(=O)(=O)c1ccc2ccccc2c1 (centres unmarked) [Example 47, N-Hydroxy 2-{6-[[2-(2-methylimidazol-1-yl)ethyl](naphthalene-2-sulfonyl)amino]-3-azabicyclo[3.1.0]hex-3-yl}pyrimidine-5-carboxamide] | 331 to 3300 nM | < 100 nM | 331 to 3300 nM | 331 to 3300 nM
5 | O=C(NO)c1cnc(N2CC3C(C2)C3N(CCN2CCCC2=O)S(=O)(=O)c2ccc3ccccc3c2)nc1 (centres unmarked) [Example 48, N-Hydroxy 2-(6-{(naphthalene-2-sulfonyl)-[2-(2-oxopyrrolidin-1-yl)ethyl]amino}-3-aza-bicyclo[3.1.0]hex-3-yl)pyrimidine-5-carboxamide] | 331 to 3300 nM | < 100 nM | 331 to 3300 nM | 331 to 3300 nM
6 | O=C(NO)c1cnc(N2CC3C(C2)C3N(CCO)S(=O)(=O)c2ccc3ccccc3c2)nc1 (centres unmarked) [Example 49, N-Hydroxy 2-{6-[(2-hydroxyethyl)(naphthalene-2-sulfonyl)amino]-3-azabicyclo[3.1.0]hex-3-yl}pyrimidine-5-carboxamide] | 331 to 3300 nM | < 100 nM | 331 to 3300 nM | 331 to 3300 nM
7 | O=C(NO)c1cnc(N2CC3C(C2)C3N(CCN2CCOCC2)S(=O)(=O)c2ccc3ccccc3c2)nc1 (centres unmarked) [Example 51] | < 330 nM | < 100 nM | < 330 nM | < 330 nM
8 | O=C(NO)c1cnc(N2CC3C(C2)C3N(CCN2CCCCC2)S(=O)(=O)c2ccc3ccccc3c2)nc1 (centres unmarked) [Example 53, N-Hydroxy 2-{6-[(naphthalene-2-sulfonyl)-(2-piperidin-1-ylethyl)amino]-3-azabicyclo[3.1.0]hex-3-yl}pyrimidine-5-carboxamide] | < 330 nM | < 100 nM | < 330 nM | < 330 nM
9 | O=C(NO)c1cnc(N2CC3C(C2)C3N(CCc2ccccn2)S(=O)(=O)c2ccc3ccccc3c2)nc1 (centres unmarked) [Example 54, N-Hydroxy 2-{6-[(naphthalene-2-sulfonyl)-(2-pyridin-2-ylethyl)-amino]-3-azabicyclo[3.1.0]hex-3-yl}pyrimidine-5-carboxamide] | 331 to 3300 nM | < 100 nM | 331 to 3300 nM | 331 to 3300 nM
10 | O=C(NO)c1cnc(N2CC3C(C2)C3N(CCN2CCCC2=O)S(=O)(=O)c2ccc(OC(F)(F)F)cc2)nc1 (centres unmarked) [Example 55, N-Hydroxy 2-{6-[[2-(2-oxopyrrolidin-1-yl)ethyl]-(4-trifluoromethoxybenzenesulfonyl)amino]-3-aza-bicyclo[3.1.0]hex-3-yl}pyrimidine-5-carboxamide] | > 3300 nM | < 100 nM | 331 to 3300 nM | 331 to 3300 nM
11 | CCN(CC)CCN(Cc1ccc2ccccc2c1)C1C2CN(c3ncc(C(=O)NO)cn3)CC21 (centres unmarked) [Example 56, N-Hydroxy 2-{6-[(2-diethylaminoethyl)naphthalen-2-ylmethylamino]-3-azabicyclo[3.1.0]hex-3-yl}pyrimidine-5-carboxamide] | < 330 nM | < 100 nM | < 330 nM | 331 to 3300 nM
12 | O=C(NO)c1cnc(N2CC3C(C2)C3N(Cc2ccc3ccccc3c2)Cc2ccc3ccccc3c2)nc1 (centres unmarked) [Example 57, N-Hydroxy 2-[6-(bisnaphthalen-2-ylmethylamino)-3-azabicyclo[3.1.0]hex-3-yl]pyrimidine-5-carboxamide] | > 3300 nM | > 1000 nM | > 3300 nM | > 3300 nM
13 | O=C(NO)c1cnc(N2CC3C(C2)C3N(Cc2cccnc2)Cc2ccc3ccccc3c2)nc1 (centres unmarked) [Example 58, N-Hydroxy 2-[6-(naphthalen-2-ylmethylpyridin-3-ylmethylamino)-3-aza-bicyclo[3.1.0]hex-3-yl]pyrimidine-5-carboxamide] | 331 to 3300 nM | 101 to 1000 nM | 331 to 3300 nM | 331 to 3300 nM
14 | CCN(CC)CCC(=O)N(Cc1ccc2ccccc2c1)C1C2CN(c3ncc(C(=O)NO)cn3)CC21 (centres unmarked) [Example 59, N-Hydroxy 2-{6-[(3-diethylaminopropionyl)naphthalen-2-ylmethylamino]-3-azabicyclo[3.1.0]hex-3-yl}-pyrimidine-5-carboxamide] | < 330 nM | < 100 nM | < 330 nM | < 330 nM
15 | CC(=O)N(Cc1ccc2ccccc2c1)C1C2CN(c3ncc(C(=O)NO)cn3)CC21 (centres unmarked) [Example 60, N-Hydroxy 2-[6-(acetylnaphthalen-2-ylmethylamino)-3-azabicyclo[3.1.0]hex-3-yl]pyrimidine-5-carboxamide] | < 330 nM | < 100 nM | < 330 nM | < 330 nM
16 | O=C(NO)c1cnc(N2CC3C(C2)C3N(Cc2ccc3ccccc3c2)C(=O)CCc2cccnc2)nc1 (centres unmarked) [Example 61, N-Hydroxy 2-{6-[naphthalen-2-ylmethyl-(3-pyridin-3-yl-propionyl)amino]-3-aza-bicyclo[3.1.0]hex-3-yl}pyrimidine-5-carboxamide] | 331 to 3300 nM | < 100 nM | < 330 nM | 331 to 3300 nM
17 | O=C(NO)c1cnc(N2CC3C(C2)C3N2CCOCC2)nc1 (centres unmarked) [Example 62, N-Hydroxy 2-(6-morpholin-4-yl-3-azabicyclo[3.1.0]hex-3-yl)pyrimidine-5-carboxamide] | > 3300 nM | 101 to 1000 nM | 331 to 3300 nM | > 3300 nM
18 | O=C(NO)c1cnc(N2CC3C(C2)C3N2CCCCC2)nc1 (centres unmarked) [Example 63, N-Hydroxy 2-(6-piperidin-1-yl-3-azabicyclo[3.1.0]hex-3-yl)pyrimidine-5-carboxamide] | > 3300 nM | 101 to 1000 nM | 331 to 3300 nM | > 3300 nM
19 | O=C(NO)c1cnc(N2CC3C(C2)C3N2Cc3ccccc3C2)nc1 (centres unmarked) [Example 64, N-Hydroxy 2-[6-(1,3-dihydro-2H-isoindol-2-yl)-3-azabicyclo[3.1.0]hex-3-yl]pyrimidine-5-carboxamide] | 331 to 3300 nM | < 100 nM | < 330 nM | 331 to 3300 nM
20 | O=C(NO)c1cnc(N2CC3C(C2)C3N2Cc3ccccc3CC2=O)nc1 (centres unmarked) [Example 65, N-Hydroxy 2-[6-(3-oxo-3,4-dihydroisoquinolin-2(1H)-yl)-3-azabicyclo[3.1.0]hex-3-yl]pyrimidine-5-carboxamide] | 331 to 3300 nM | < 100 nM | 331 to 3300 nM | 331 to 3300 nM
